In data set [1] the test system is Pseudomonas aeruginosa. Description: Antibiofilm activity against Pseudomonas aeruginosa PW6886 harboring rhlA-E08::ISphoA/hah mutant preformed biofilms assessed as reduction in biofilm bacterial count at 20 to 40 uM preincubated for 24 hrs under non-shaking condition followed by second incubation for 1 hr after compound washout and subsequent compound addition and measured after 1 hr incubation under non-shaking condition by crystal-violet staining based assay. The format is functional.

Data set [2] concerns Pseudomonas aeruginosa. Description: Induction of tendril formation in Pseudomonas aeruginosa PW6886 harboring rhlA-E08::ISphoA/hah mutant at 5 to 100 uM after 24 hrs. In kind it is functional.
Data set [3] has as its system Pseudomonas aeruginosa. Description: Inhibition of biofilm formation in eGFP-fused Pseudomonas aeruginosa PW6886 harboring rhlA-E08::ISphoA/hah mutant at 340 uM after 48 hrs under shaking condition by confocal laser scanning microscopy. The format is functional.
Data set [4] concerns Pseudomonas aeruginosa. The experiment in a line: Induction of tendril formation in Pseudomonas aeruginosa PAO1 at > 85 uM after 24 hrs. In kind it is functional.
In data set [5] the test system is Pseudomonas aeruginosa. The experiment in a line: Induction of swarming motility of wild-type Pseudomonas aeruginosa PAO1 at 50 uM after 24 hrs. In kind it is functional.
Data set [6] relates to Pseudomonas aeruginosa. The experiment in a line: Induction of biofilm formation in Pseudomonas aeruginosa PW6886 harboring rhlA-E08::ISphoA/hah mutant at 20 to 170 uM after 24 hrs under non-shaking condition by crystal-violet staining based assay. The format is functional.
Data set [7] has as its system Pseudomonas aeruginosa. The experiment in a line: Inhibition of biofilm formation in eGFP-fused Pseudomonas aeruginosa PW6886 harboring rhlA-E08::ISphoA/hah mutant at 340 uM after 24 hrs under shaking condition by confocal laser scanning microscopy. In kind it is functional.
For data set [8], the system named is Pseudomonas aeruginosa. The experiment in a line: Induction of structured biofilm formation in eGFP-fused Pseudomonas aeruginosa PW6886 harboring rhlA-E08::ISphoA/hah mutant at 20 uM after 24 hrs under shaking condition by confocal laser scanning microscopy. The format is functional.
Data set [9] concerns Pseudomonas aeruginosa. The experiment in a line: Induction of biofilm formation in eGFP-fused Pseudomonas aeruginosa PW6886 harboring rhlA-E08::ISphoA/hah mutant at 20 to 40 uM by COMSTAT based quantification relative to control. The format is functional.
In data set [10] the test system is Pseudomonas aeruginosa. The experiment in a line: Induction of biofilm formation in eGFP-fused Pseudomonas aeruginosa PW6886 harboring rhlA-E08::ISphoA/hah mutant at 20 uM after 48 hrs under shaking condition by confocal laser scanning microscopy. The format is functional.
Data set [11] deals with Pseudomonas aeruginosa. The experiment in a line: Induction of swarming motility of Pseudomonas aeruginosa PW6886 harboring rhlA-E08::ISphoA/hah mutant at 5 to 100 uM after 24 hrs. In kind it is functional.
The test system of data set [12] is Pseudomonas aeruginosa. Description: Bactericidal activity against Pseudomonas aeruginosa PW6886 harboring rhlA-E08::ISphoA/hah mutant at 20 to 340 uM under shaking condition.
The subject of data set [13] is Pseudomonas aeruginosa. Description: Inhibition of biofilm formation in eGFP-fused Pseudomonas aeruginosa PW6886 harboring rhlA-E08::ISphoA/hah mutant at 340 uM by COMSTAT based quantification relative to control. The format is functional.
Data set [14] concerns Pseudomonas aeruginosa. The experiment in a line: Antibiofilm activity against Pseudomonas aeruginosa PW6886 harboring rhlA-E08::ISphoA/hah mutant preformed biofilms assessed as reduction in biofilm bacterial count at 340 uM preincubated for 24 hrs under non-shaking condition followed by second incubation for 1 hr after compound washout and subsequent compound addition and measured after 1 hr incubation under non-shaking condition by crystal-violet staining based assay. The format is functional.

For data set [15], the system named is Pseudomonas aeruginosa. Description: Induction of swarming motility of wild-type Pseudomonas aeruginosa PAO1 at 5 to 100 uM after 24 hrs. The format is functional.
Data set [16] has as its system Pseudomonas aeruginosa. The experiment in a line: Antibiofilm activity against Pseudomonas aeruginosa PW6886 harboring rhlA-E08::ISphoA/hah mutant preformed biofilms assessed as reduction in biofilm bacterial count at 20 to 340 uM preincubated for 24 hrs under non-shaking condition followed by second incubation for 1 hr after compound washout and subsequent compound addition and measured after 1 hr incubation under non-shaking condition by crystal-violet staining based assay. In kind it is functional.

Data set [17] relates to Pseudomonas aeruginosa. Description: Induction of biofilm formation in Pseudomonas aeruginosa PW6886 harboring rhlA-E08::ISphoA/hah mutant expressing EGFP at 20 to 340 uM after 48 hrs under shaking condition by confocal laser scanning microscopy. In kind it is functional.
For data set [18], the system named is Pseudomonas aeruginosa. The experiment in a line: Effect on biofilm formation in Pseudomonas aeruginosa PW6886 harboring rhlA-E08::ISphoA/hah mutant at 10 to 340 uM after 24 hrs under non-shaking condition by crystal-violet staining based assay. The format is functional.
The test system of data set [19] is Pseudomonas aeruginosa. The experiment in a line: Inhibition of biofilm formation in Pseudomonas aeruginosa PW6886 harboring rhlA-E08::ISphoA/hah mutant expressing EGFP at 20 to 340 uM after 48 hrs under shaking condition by confocal laser scanning microscopy. In kind it is functional.
Data set [20] deals with Pseudomonas aeruginosa. The experiment in a line: Induction of biofilm formation in Pseudomonas aeruginosa PW6886 harboring rhlA-E08::ISphoA/hah mutant expressing EGFP at 40 uM after 24 hrs under non-shaking condition by confocal laser scanning microscopy. The format is functional.
Data set [21] has as its system Pseudomonas aeruginosa. The experiment in a line: Induction of biofilm formation in Pseudomonas aeruginosa PW6886 harboring rhlA-E08::ISphoA/hah mutant expressing EGFP assessed as reduction in exopolymers covering the bottom of well at 20 to 85 uM after 24 hrs under shaking condition by confocal laser scanning microscopy. The format is functional.
In data set [22] the test system is Pseudomonas aeruginosa. The experiment in a line: Inhibition of biofilm formation in Pseudomonas aeruginosa PW6886 harboring rhlA-E08::ISphoA/hah mutant at 340 uM under non-shaking condition after 24 hrs by crystal-violet staining based assay. In kind it is functional.

Active and inactive are the calls of the source. The calls are words filed in the database; no cut-off is given here.

On to `CCCCCCCCCCCCO[C@@H]1O[C@H](CO)[C@@H](O[C@H]2O[C@H](CO)[C@@H](O)[C@H](O)[C@H]2O)[C@H](O)[C@H]1O`, for which the outcome in data set [1] and in [10] was inactive. In addition, the result in [2], in [4], in [5], in data set [6], in data set [8] and in data set [11] was Active. In addition, in data set [14], the outcome was Active. In addition, in [3], the inhibition result is “inactive”. For the same compound, in data set [7], the inhibition entry is “Active”. The Activity was 10 - 60% in [9] and “Non-Toxic” in data set [12]. For the same compound, 340 µM produced 80% inhibition in data set [13].
Regarding `CCCOCCCCCCCCO[C@@H]1O[C@H](CO)[C@@H](O[C@H]2O[C@H](CO)[C@@H](O)[C@H](O)[C@H]2O)[C@H](O)[C@H]1O`, the outcome in data set [15], in [16], in data set [17], in data set [18] and in data set [11] was inactive. In addition, the inhibition result in data set [19] was “inactive”.
On to `CC(C)CCCC(C)CCCC(C)CCO[C@@H]1O[C@H](CO)[C@@H](O[C@H]2O[C@H](CO)[C@@H](O)[C@H](O)[C@H]2O)[C@H](O)[C@H]1O` (some centres not stated), for which the outcome in [1] was inactive. Further, the inhibition entry in data set [3], in [7] and in [22] was “Active” in each case. Further, the result in [20], in [6], in [8], in data set [21], in data set [10] and in data set [14] was Active. The Activity in [9] was 10 - 60%; in [12] it was “Non-Toxic”. Moreover, the inhibition at 340 µM in [13] was 80%.
As to `O=C(c1ccccc1)c1ccc(COCCCCCCCCCCO[C@@H]2O[C@H](CO)[C@@H](O[C@H]3O[C@H](CO)[C@@H](O)[C@H](O)[C@H]3O)[C@H](O)[C@H]2O)cc1`, the outcome in data set [1] was inactive. For the same compound, the inhibition entry in data set [3] and in data set [7] was “Active” throughout. Also, the result in data set [20], in data set [6], in data set [8], in data set [10] and in [14] was Active. Also, the Activity in data set [9] was 10 - 60%; in data set [12], “Non-Toxic”. The compound further showed an inhibition at 340 µM in [13] of 80%.
Regarding `CCCCCCOCCCCCO[C@@H]1O[C@H](CO)[C@@H](O[C@H]2O[C@H](CO)[C@@H](O)[C@H](O)[C@H]2O)[C@H](O)[C@H]1O`, the result in data set [15], in [16], in [17], in data set [18] and in [11] was inactive. For the same compound, in [19], the inhibition entry was “inactive”. For the same compound, in data set [12], the Activity result is “Non-Toxic”.
Take `CC(C)CCCC(C)CCCC(C)CCO[C@@H]1O[C@H](CO)[C@@H](O[C@@H]2O[C@H](CO)[C@@H](O)[C@H](O)[C@H]2O)[C@H](O)[C@H]1O` (some centres not stated): the result in data set [1] was inactive. For the same compound, the inhibition entry in data set [3], in data set [7] and in data set [22] was “Active” in each case. Moreover, the result in data set [20], in data set [6], in data set [8], in [10] and in data set [14] was Active. In addition, the Activity in [9] is 10 - 60%. In data set [13], this compound showed an inhibition at 340 µM of 80%.

By inhibition is commonly meant the relative decrease from the control value, in per cent.

(Values after ChEMBL document CHEMBL4004864, “Synthetic analogs of rhamnolipids modulate structured biofilms formed by rhamnolipid-nonproducing mutant of Pseudomonas aeruginosa” (Bioorg Med Chem, 2017).)
